Laboratory results as given in ChEMBL document CHEMBL5058649, “Data for DCP probe BAY 1816032” (2022).

Legend:
[1] = target: L-type calcium channel, benzothiazepine site (Cav1.2 alpha-1C) (Homo sapiens, UniProt Q13936); assay: Inhibition of Calcium Channel L-Type, Benzothiazepine at 10 µM in the Eurofins-Panlabs radioligand binding assay (Eurofins_assay_214510); parameters: ligand concentration 2 nM, non-specific ligand with concentration 10 µM Diltiazem, incubation time 3h, incubation temperature 4 °C; conditions: male, Wistar, rat, rat whole brain preparation, probe [3H] Diltiazem; compound concentration 10 uM; target entry is the homologue from another species
[2] = target: hERG (KCNH2) (Homo sapiens, UniProt Q12809); assay: Inhibition of Potassium Channel hERG at 10 µM in the Eurofins-Panlabs radioligand binding assay (Eurofins_assay_265900); parameters: ligand concentration 1.5 nM, non-specific ligand with concentration Astemizole, incubation time 60 min, incubation temperature 25 °C; conditions: HEK-293 cells expressing human recombinant hERG, probe [3H] Astemizole, compound concentration 10 uM
[3] = target: Glycogen synthase kinase-3 alpha (Homo sapiens, UniProt P49840); assay: GSK3A DiscoveRx kinase panel
[4] = target: TGF-beta receptor type-1 (Homo sapiens) (UniProt P36897); assay: TGFBR1 DiscoveRx kinase panel; conditions: Compound concentration 1.0 uM
[5] = target: Rhodopsin kinase GRK7 (Homo sapiens) (UniProt Q8WTQ7); assay: GRK7 DiscoveRx kinase panel; conditions: Compound concentration 1.0 uM
[6] = target: Serine/threonine-protein kinase 16 (Homo sapiens) (UniProt O75716); assay: STK16 DiscoveRx kinase panel; conditions: Compound concentration 1.0 uM
[7] = target: Cyclin-dependent kinase 8 (Homo sapiens) (UniProt P49336); assay: CDK8 DiscoveRx kinase panel; conditions: Compound concentration 1.0 uM
[8] = target: Activin receptor type-1B (Homo sapiens) (UniProt P36896); assay: ACVR1B DiscoveRx kinase panel; conditions: Compound concentration 1.0 uM
[9] = target: Cyclin-dependent kinase 18 (Homo sapiens) (UniProt Q07002); assay: PCTK3 DiscoveRx kinase panel; conditions: Compound concentration 1.0 uM
[10] = target: Serine/threonine-protein kinase 25 (Homo sapiens) (UniProt O00506); assay: YSK1 DiscoveRx kinase panel; conditions: Compound concentration 1.0 uM
[11] = target: Peripheral plasma membrane protein CASK (Homo sapiens) (UniProt O14936); assay: CASK DiscoveRx kinase panel; conditions: Compound concentration 1.0 uM
[12] = target: G protein-coupled receptor kinase 4 (Homo sapiens) (UniProt P32298); assay: GRK4 DiscoveRx kinase panel; conditions: Compound concentration 1.0 uM
[13] = target: Macrophage-stimulating protein receptor (Homo sapiens) (UniProt Q04912); assay: MST1R DiscoveRx kinase panel; conditions: Compound concentration 1.0 uM
[14] = target: Mitogen-activated protein kinase kinase kinase 6 (Homo sapiens) (UniProt O95382); assay: ASK2 DiscoveRx kinase panel; conditions: Compound concentration 1.0 uM
[15] = target: Serine/threonine-protein kinase SIK1 (Homo sapiens) (UniProt P57059); assay: SIK DiscoveRx kinase panel; conditions: Compound concentration 1.0 uM
[16] = target: Casein kinase I isoform alpha-like (Homo sapiens) (UniProt Q8N752); assay: CSNK1A1L DiscoveRx kinase panel; conditions: Compound concentration 1.0 uM
[17] = target: Serine/threonine-protein kinase Nek2 (Homo sapiens) (UniProt P51955); assay: NEK2 DiscoveRx kinase panel; conditions: Compound concentration 1.0 uM
[18] = target: Testis-specific serine/threonine-protein kinase 3 (Homo sapiens) (UniProt Q96PN8); assay: TSSK3 DiscoveRx kinase panel; conditions: Compound concentration 1.0 uM
[19] = tested on: eIF-2-alpha kinase GCN2 (Homo sapiens), Q9P2K8 [S808G]; assay: GCN2(Kin.Dom.2,S808G) DiscoveRx kinase panel; conditions: Compound concentration 1.0 uM
[20] = target: Serine/threonine-protein kinase N1 (Homo sapiens) (UniProt Q16512); assay: PKN1 DiscoveRx kinase panel; conditions: Compound concentration 1.0 uM
[21] = target: 5'-AMP-activated protein kinase catalytic subunit alpha-2 (Homo sapiens) (UniProt P54646); assay: AMPK-alpha2 DiscoveRx kinase panel; conditions: Compound concentration 1.0 uM
[22] = target: Ephrin type-B receptor 3 (Homo sapiens) (UniProt P54753); assay: EPHB3 DiscoveRx kinase panel; conditions: Compound concentration 1.0 uM
[23] = target: Protein-tyrosine kinase 2-beta (Homo sapiens) (UniProt Q14289); assay: PYK2 DiscoveRx kinase panel; conditions: Compound concentration 1.0 uM
[24] = target: Insulin-like growth factor 1 receptor (Homo sapiens) (UniProt P08069); assay: IGF1R DiscoveRx kinase panel; conditions: Compound concentration 1.0 uM
[25] = target: Serine/threonine-protein kinase MRCK beta (Homo sapiens) (UniProt Q9Y5S2); assay: MRCKB DiscoveRx kinase panel; conditions: Compound concentration 1.0 uM
[26] = target: Phosphatidylinositol 3-kinase C2 domain-containing subunit gamma (Homo sapiens) (UniProt O75747); assay: PIK3C2G DiscoveRx kinase panel; conditions: Compound concentration 1.0 uM
[27] = target: ALK tyrosine kinase receptor (Homo sapiens) (UniProt Q9UM73); assay: ALK DiscoveRx kinase panel; conditions: Compound concentration 1.0 uM
[28] = target: Aurora kinase A (Homo sapiens) (UniProt O14965); assay: AURKA DiscoveRx kinase panel; conditions: Compound concentration 1.0 uM
[29] = target: Aurora kinase B (Homo sapiens) (UniProt Q96GD4); assay: AURKB DiscoveRx kinase panel; conditions: Compound concentration 1.0 uM
[30] = target: Cyclin-dependent kinase 4 (Homo sapiens) (UniProt P11802); assay: CDK4 DiscoveRx kinase panel; conditions: Compound concentration 1.0 uM
[31] = target: Homeodomain-interacting protein kinase 3 (Homo sapiens) (UniProt Q9H422); assay: HIPK3 DiscoveRx kinase panel; conditions: Compound concentration 1.0 uM
[32] = target: Tyrosine-protein kinase Lck (Homo sapiens) (UniProt P06239); assay: LCK DiscoveRx kinase panel; conditions: Compound concentration 1.0 uM
[33] = target: Serine/threonine-protein kinase 26 (Homo sapiens) (UniProt Q9P289); assay: MST4 DiscoveRx kinase panel; conditions: Compound concentration 1.0 uM
[34] = target: Mitogen-activated protein kinase 14 (Homo sapiens) (UniProt Q16539); assay: p38-alpha DiscoveRx kinase panel; conditions: Compound concentration 1.0 uM
[35] = target: Serine/threonine-protein kinase PLK3 (Homo sapiens) (UniProt Q9H4B4); assay: PLK3 DiscoveRx kinase panel; conditions: Compound concentration 1.0 uM
[36] = target: Serine/threonine-protein kinase PLK4 (Homo sapiens) (UniProt O00444); assay: PLK4 DiscoveRx kinase panel; conditions: Compound concentration 1.0 uM
[37] = target: Proto-oncogene tyrosine-protein kinase ROS (Homo sapiens) (UniProt P08922); assay: ROS1 DiscoveRx kinase panel; conditions: Compound concentration 1.0 uM
[38] = target: Uncharacterized serine/threonine-protein kinase SBK3 (Homo sapiens) (UniProt P0C264); assay: SgK110 DiscoveRx kinase panel; conditions: Compound concentration 1.0 uM
[39] = target: Mitogen-activated protein kinase kinase kinase 7 (Homo sapiens) (UniProt O43318); assay: TAK1 DiscoveRx kinase panel; conditions: Compound concentration 1.0 uM
[40] = target: Serine/threonine-protein kinase TAO3 (Homo sapiens) (UniProt Q9H2K8); assay: TAOK3 DiscoveRx kinase panel; conditions: Compound concentration 1.0 uM
[41] = target: Sodium-dependent serotonin transporter (Homo sapiens) (UniProt P31645); assay: Transporter, Serotonin (5- Hydroxytryptamine) (SERT) Eurofins-Panlabs radioligand binding assay; conditions: Compound concentration 10.0 uM
[42] = tested on: HeLa; assay: HeLa (presence of 3 nM Paclitaxel) cell line Proliferation assay; assay type: functional, Homo sapiens; conditions: time 4 day
[43] = target: 5-hydroxytryptamine receptor 3A (Homo sapiens) (UniProt P46098); conditions: Compound concentration 10.0 uM
[44] = target: Sigma intracellular receptor 2 (Homo sapiens, UniProt Q5BJF2); conditions: Compound concentration 10.0 uM
[45] = target: Cannabinoid receptor 1 (Homo sapiens) (UniProt P21554); conditions: Compound concentration 10.0 uM
[46] = target: D(2) dopamine receptor (Homo sapiens) (UniProt P14416); conditions: Compound concentration 10.0 uM
[47] = target: Acetylcholinesterase (Homo sapiens) (UniProt P22303); conditions: Compound concentration 10.0 uM
[48] = target: Androgen receptor (Homo sapiens) (UniProt P10275); conditions: Compound concentration 10.0 uM

Chain of Serine/threonine-protein kinase PLK4 (Homo sapiens) (O00444 whole entry): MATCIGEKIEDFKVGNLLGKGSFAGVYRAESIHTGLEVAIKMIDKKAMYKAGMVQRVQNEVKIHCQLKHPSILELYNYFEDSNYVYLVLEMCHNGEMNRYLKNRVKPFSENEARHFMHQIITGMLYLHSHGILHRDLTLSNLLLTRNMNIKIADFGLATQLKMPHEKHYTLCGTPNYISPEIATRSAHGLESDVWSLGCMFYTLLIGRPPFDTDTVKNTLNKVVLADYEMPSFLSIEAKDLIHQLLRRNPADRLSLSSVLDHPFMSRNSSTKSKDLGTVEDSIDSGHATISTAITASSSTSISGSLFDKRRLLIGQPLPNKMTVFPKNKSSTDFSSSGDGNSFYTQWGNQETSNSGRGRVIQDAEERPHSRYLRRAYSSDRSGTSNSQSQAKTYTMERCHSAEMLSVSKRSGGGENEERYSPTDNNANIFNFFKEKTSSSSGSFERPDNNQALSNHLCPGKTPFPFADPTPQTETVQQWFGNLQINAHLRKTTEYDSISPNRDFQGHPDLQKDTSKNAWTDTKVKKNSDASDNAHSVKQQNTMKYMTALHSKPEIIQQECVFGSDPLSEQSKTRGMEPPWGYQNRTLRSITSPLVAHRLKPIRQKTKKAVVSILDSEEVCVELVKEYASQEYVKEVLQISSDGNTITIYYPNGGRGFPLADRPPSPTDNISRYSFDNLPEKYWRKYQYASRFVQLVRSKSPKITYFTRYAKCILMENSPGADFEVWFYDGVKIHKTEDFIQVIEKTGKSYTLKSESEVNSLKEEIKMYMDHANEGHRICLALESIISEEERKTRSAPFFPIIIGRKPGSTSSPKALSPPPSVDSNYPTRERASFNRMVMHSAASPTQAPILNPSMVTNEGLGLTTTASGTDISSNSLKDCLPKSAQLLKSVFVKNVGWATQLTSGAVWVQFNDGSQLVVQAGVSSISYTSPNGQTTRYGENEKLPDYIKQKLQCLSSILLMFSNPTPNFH
Chain of Serine/threonine-protein kinase Nek2 (Homo sapiens) (P51955 whole entry): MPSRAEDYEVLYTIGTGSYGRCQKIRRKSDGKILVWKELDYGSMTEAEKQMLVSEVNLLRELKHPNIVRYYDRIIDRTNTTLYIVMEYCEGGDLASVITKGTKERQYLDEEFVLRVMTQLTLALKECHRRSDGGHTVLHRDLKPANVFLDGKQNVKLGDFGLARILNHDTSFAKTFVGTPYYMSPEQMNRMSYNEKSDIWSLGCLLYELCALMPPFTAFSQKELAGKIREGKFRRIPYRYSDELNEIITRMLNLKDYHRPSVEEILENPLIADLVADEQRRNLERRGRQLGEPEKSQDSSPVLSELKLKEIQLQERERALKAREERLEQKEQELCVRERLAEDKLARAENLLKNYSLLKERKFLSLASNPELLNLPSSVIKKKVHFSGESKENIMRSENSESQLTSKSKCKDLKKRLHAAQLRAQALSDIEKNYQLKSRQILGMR
Chain of Serine/threonine-protein kinase 25 (Homo sapiens) (O00506 whole entry, looked up): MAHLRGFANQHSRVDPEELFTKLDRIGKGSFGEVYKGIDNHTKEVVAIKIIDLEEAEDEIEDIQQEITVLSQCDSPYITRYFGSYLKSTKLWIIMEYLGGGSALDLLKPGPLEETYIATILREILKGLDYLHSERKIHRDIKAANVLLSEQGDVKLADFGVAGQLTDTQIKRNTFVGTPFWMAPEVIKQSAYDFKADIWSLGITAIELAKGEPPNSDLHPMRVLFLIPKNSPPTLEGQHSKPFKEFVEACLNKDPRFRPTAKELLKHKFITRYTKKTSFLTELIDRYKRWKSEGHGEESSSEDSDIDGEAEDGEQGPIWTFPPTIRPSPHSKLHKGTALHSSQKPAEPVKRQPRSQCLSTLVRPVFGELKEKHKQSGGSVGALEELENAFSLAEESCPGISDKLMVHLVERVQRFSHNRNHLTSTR
Chain of eIF-2-alpha kinase GCN2 (Homo sapiens), Q9P2K8 [S808G] (Q9P2K8 whole entry S808G): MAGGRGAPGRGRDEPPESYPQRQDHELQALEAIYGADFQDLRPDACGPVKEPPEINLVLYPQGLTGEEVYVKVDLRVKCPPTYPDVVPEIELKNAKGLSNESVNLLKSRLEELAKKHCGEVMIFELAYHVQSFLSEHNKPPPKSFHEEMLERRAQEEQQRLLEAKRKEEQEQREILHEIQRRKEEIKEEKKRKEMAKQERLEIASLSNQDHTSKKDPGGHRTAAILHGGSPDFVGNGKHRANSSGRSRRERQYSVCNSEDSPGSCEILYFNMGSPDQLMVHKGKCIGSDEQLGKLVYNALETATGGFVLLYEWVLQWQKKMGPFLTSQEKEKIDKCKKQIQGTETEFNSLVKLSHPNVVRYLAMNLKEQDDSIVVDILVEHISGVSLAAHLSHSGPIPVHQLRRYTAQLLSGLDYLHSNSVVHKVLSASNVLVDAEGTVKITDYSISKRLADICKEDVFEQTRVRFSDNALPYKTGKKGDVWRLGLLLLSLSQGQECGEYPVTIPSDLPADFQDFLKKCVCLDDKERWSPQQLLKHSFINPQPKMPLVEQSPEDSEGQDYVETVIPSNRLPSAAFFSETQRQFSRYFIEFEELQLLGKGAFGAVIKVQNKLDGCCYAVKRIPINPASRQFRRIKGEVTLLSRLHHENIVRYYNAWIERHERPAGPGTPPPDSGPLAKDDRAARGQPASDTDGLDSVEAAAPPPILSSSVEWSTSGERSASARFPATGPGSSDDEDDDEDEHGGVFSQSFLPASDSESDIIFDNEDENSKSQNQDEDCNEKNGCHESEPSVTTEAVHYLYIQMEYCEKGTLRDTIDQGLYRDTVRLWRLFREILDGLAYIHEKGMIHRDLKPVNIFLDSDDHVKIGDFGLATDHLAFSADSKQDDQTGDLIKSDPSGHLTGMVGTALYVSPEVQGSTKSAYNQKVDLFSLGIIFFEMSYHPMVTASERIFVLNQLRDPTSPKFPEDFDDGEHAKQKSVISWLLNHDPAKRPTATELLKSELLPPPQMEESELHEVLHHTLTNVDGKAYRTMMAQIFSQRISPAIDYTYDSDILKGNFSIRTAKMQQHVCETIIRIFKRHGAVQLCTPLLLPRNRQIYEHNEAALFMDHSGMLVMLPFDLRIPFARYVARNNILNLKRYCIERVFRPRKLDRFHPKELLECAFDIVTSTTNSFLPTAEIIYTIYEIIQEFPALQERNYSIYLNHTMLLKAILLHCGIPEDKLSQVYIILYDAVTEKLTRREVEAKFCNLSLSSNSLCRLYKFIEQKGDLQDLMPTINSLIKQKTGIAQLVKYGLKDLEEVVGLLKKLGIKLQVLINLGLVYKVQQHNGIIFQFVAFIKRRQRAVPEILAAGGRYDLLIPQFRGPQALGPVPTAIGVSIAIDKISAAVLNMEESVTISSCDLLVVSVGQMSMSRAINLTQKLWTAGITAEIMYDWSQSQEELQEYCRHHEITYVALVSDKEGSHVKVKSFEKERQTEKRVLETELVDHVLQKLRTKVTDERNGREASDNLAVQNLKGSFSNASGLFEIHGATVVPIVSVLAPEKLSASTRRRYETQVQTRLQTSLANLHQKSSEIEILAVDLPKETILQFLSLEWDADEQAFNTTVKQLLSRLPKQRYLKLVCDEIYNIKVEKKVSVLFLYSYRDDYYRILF
Chain of D(2) dopamine receptor (Homo sapiens) (P14416 whole entry): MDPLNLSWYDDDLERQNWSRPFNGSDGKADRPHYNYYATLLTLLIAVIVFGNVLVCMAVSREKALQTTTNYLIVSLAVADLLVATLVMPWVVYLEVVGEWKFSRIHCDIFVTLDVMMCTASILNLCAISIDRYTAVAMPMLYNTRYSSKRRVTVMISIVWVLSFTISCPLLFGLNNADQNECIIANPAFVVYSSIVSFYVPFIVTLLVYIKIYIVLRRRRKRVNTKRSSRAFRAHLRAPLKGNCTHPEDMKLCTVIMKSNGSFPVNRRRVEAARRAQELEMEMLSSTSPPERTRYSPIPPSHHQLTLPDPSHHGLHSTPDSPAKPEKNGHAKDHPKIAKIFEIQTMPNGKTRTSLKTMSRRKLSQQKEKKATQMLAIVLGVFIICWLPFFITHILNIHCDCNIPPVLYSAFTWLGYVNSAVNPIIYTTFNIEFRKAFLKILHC
Chain of Casein kinase I isoform alpha-like (Homo sapiens) (Q8N752 whole entry, canonical isoform): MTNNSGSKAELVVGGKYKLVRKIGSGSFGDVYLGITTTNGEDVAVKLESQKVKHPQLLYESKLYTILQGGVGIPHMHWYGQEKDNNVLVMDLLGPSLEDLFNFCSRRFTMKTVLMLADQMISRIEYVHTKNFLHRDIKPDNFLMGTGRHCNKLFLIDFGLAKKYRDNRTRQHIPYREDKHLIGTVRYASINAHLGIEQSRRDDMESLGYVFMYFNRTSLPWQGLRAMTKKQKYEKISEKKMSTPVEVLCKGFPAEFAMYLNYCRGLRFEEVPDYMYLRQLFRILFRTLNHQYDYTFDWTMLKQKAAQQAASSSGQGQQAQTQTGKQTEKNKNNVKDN
Chain of Aurora kinase B (Homo sapiens) (Q96GD4 whole entry): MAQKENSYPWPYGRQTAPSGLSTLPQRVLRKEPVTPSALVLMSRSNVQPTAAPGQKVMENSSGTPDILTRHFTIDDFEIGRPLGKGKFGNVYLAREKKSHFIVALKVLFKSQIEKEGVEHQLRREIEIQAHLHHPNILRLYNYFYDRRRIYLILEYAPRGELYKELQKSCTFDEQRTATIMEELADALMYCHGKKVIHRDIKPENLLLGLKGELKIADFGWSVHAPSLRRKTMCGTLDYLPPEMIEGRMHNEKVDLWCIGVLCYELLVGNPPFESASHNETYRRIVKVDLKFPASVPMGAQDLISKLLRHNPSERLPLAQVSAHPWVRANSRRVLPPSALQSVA
Chain of Serine/threonine-protein kinase 26 (Homo sapiens) (Q9P289 2-416 limits assumed): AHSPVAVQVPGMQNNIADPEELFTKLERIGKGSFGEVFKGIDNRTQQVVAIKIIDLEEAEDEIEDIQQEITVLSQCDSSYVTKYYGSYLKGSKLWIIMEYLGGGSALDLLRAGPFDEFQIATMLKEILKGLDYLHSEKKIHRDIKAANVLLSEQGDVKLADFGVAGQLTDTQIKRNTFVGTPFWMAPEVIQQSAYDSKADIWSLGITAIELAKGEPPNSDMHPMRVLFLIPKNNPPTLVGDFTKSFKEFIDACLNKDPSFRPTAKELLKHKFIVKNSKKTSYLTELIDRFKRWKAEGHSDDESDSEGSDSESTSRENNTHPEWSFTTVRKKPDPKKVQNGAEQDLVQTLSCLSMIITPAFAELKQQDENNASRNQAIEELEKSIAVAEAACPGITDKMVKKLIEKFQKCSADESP

In the case of COc1cnccc1Nc1nc(-c2nn(Cc3c(F)cc(OCCO)cc3F)c3ccccc23)ncc1OC, the inhibition at 3 h, 10 µM [1] is reported as -10% (not active), the inhibition at 60 min, 10 µM [2] is reported as 23% (not active) and the Kd [3] is reported as over 30 µM. It also gave a residual activity ([3]; Compound concentration 1.0 uM) of 26%, a residual activity [4] of 53% and a residual activity [5] of 60%. It also gave a residual activity [6] of 65%, a residual activity [7] of 69% and a residual activity [8] of 72%. For the same molecule, the residual activity [9] was 76%, the residual activity [10] was 76% and the residual activity [11] was 78%. It also gave a residual activity [12] of 79%, a residual activity [13] of 80% and a residual activity [14] of 82%. The residual activity [15] was 84%, the residual activity [16] was 89% and the residual activity [17] was 90%. For the same molecule, the residual activity [18] was 90%, the residual activity [19] was 91% and the residual activity [20] was 92%. It also gave a residual activity [21] of 95%, a residual activity [22] of 95% and a residual activity [23] of 95%. It also gave a residual activity [24] of 97%, a residual activity [25] of 98% and a residual activity [26] of 98%. It also gave a residual activity [27] of 100%, a residual activity [28] of 100% and a residual activity [29] of 100%. It also gave a residual activity [30] of 100%, a residual activity [31] of 100% and a residual activity [32] of 100%. It also gave a residual activity [33] of 100%, a residual activity [34] of 100% and a residual activity [35] of 100%. For the same molecule, the residual activity [36] was 100%, the residual activity [37] was 100% and the residual activity [38] was 100%. For the same molecule, the residual activity [39] was 100%, the residual activity [40] was 100% and the inhibition [41] was 4%. The “Cell Proliferation IC50” value [42] was 0.063 µM, the inhibition [43] was -8.58% and the inhibition [44] was 13%. It also gave an inhibition [45] of -6%, an inhibition [46] of 17% and an inhibition [47] of 2%. The inhibition [48] was 9%.
